“Also recorded” adds a separate entry of the source.
Legend:
[1] = test system: severely burned (>40% total body surface area) children; assay: Stable isotope cross-leg skeletal muscle protein kinetic study
[2] = test system: severely burned (>40% total body surface area) children; assay: Energy expenditure by metabolic cart (indirect calorimetry); assay type: in vivo, human
Experimental: Between midnight and 5 AM on the day of study, oxygen consumption (VO2), carbon dioxide production (VCO2), respiratory quotient (RQ) and resting energy expenditure (REE) were determined with a metabolic cart (Sensormedics Model 2900; Yorba Linda, Calif.) at 30° C. ambient room temperature during continuous feeding.

[3] = test system: severely burned (>40% total body surface area) children; assay: Lean body mass by dual image x-ray absorptiometry (DEXA); assay type: in vivo, human
Experimental: (§1) Two weeks after treatment was started, a second series of metabolic and protein kinetic studies was performed. Subjects who received at least a four-week treatment course underwent a second whole-body potassium measurement. At discharge, subjects underwent body composition scanning by a dual image x-ray absorptiometry.
Total body lean mass and fat mass were measured by dual image x-ray absorptometry. A Hologic model QDR-4500W DEXA (Hologic Inc, Waltham, Mass.) with the pediatric software package was used to measure body composition.

[4] = test system: severely burned (>40% total body surface area) children; assay: Fat-free mass by whole body potassium 40 counting; assay type: in vivo, human
Experimental: as §1
Determination of Fat-Free Mass using Potassium 40 Whole Body Counting. Fat-Free Mass was determined by Whole Body Potassium 40 (^40K) scintillation counting in a heavily shielded low background noise counting room, a 32 NaI detector array, and computed data analysis which has been validated for use in children.^20,21 The counting precision of the instrument used is <1.5%, which was calibrated daily using BOMAB Phantoms with simulated fat overlays. All studies were done after feedings and IV fluids were discontinued to minimize exogenous potassium contamination.

[5] = test system: severely burned (>40% total body surface area) children; assay: Clinical safety: sepsis, held doses, complications during hospitalization; assay type: in vivo, human
[6] = test system: severely burned (>40% total body surface area) children; assay: Serum glucose, potassium and hormone values; conditions: result in words
[7] = test system: severely burned (>40% total body surface area) children; assay: Vital signs (hourly heart rate, blood pressure, temperature)
[8] = after treatment, n = 11, model derived, mean, listed as heads read shifted one entry
[9] = result in words, listed as propranolol
[10] = between metabolic studies, result in words
[11] = two weeks of oral propranolol, mean ± SEM

CC(C)NCC(O)COc1cccc2ccccc12 (stereo not drawn) [Propranolol, propranolol] was tested, and the “FSR, fractional synthetic rate, rate of incorporation of tracer into muscle over time” value ([1]; after treatment, n = 11, mean) was 0.34 %/hr, the “FM,A, inward transport into myocyte” value [1, 8] was 0.264 μmol Phe/min/100 ml leg and the “FM,O, muscle protein breakdown” value [1, 8] was 0.287 μmol Phe/min/100 ml leg. For the same compound, the “FO,M, muscle protein synthesis” value [1, 8] was 0.337 μmol Phe/min/100 ml leg, the “FV,A, A→V shunt past muscle” value [1, 8] was 0.821 μmol Phe/min/100 ml leg and the “FV,M, outward transport from myocyte” value [1, 8] was 0.214 μmol Phe/min/100 ml leg. The “Fin, amino acid inflow into leg via femoral artery” value [1, 8] was 1.085 μmol Phe/min/100 ml leg, the “Fout, amino acid outflow from leg via femoral vein” value [1, 8] was 1.034 μmol Phe/min/100 ml leg and the “Rd, rate of disappearance, approximating protein synthesis” value [1, 8] was 0.157 μmol Phe/min/100 ml leg. For the same compound, the “Protein synthesis measured by direct incorporation of the tracer” value ([1]; long-term β-blockade, result in words) was “increased”, the “Muscle protein net balance from baseline and vs non-treated controls” value ([1]; result in words) was “improved” and the “Muscle protein net balance from baseline and vs non-treated controls” value [1, 9] was “achieved anabolic levels”. The “Carbon dioxide production vs non-treated group” value [2, 10] was “significant decreases”, the “Oxygen consumption vs non-treated group” value [2, 10] was “significant decreases” and the Respiratory quotient [2, 10] was “did not change”. For the same compound, the “Resting energy expenditure vs baseline / non-treated group” value [2, 9] was “lower than baseline and lower than those of the control group; also recorded: significant decreases”, the “Carbon dioxide production, change from baseline” value [2, 11] was −64 ± 22 and the “Oxygen consumption, change from baseline” value [2, 11] was −56 ± 22. For the same compound, the “Respiratory quotient, change from baseline” value [2, 11] was −0.1 ± 0.1, the “Resting energy expenditure, change from baseline” value [2, 11] was −422 ± 197 and the “Improvement of lean body mass percentage vs non-treated control group” value ([3]; at discharge, p=0.01) was about 6%. For the same compound, the “Lean body mass percentage” value ([3]; at full healing and discharge, 9 treated subjects) was 79.1±1.2%, the “Loss of fat free mass” value ([4]; 4 weeks of treatment, twelve propranolol subjects, p=0.003 vs controls) was 1% and the “Fat free mass by whole body potassium counter” value ([4]; four weeks of treatment, result in words) was “did not change; also recorded: preserved”. For the same compound, the “Subjects who developed sepsis” value ([5]; during hospitalization, p=1.0 vs controls) was 4 of 13, the “Subjects in whom one or more doses were held temporarily for a mean arterial pressure between 60 and 65” value ([5]; during treatment course) was 3 of 13 and the Asthma ([5]; result in words) was “No asthma occurred”. For the same compound, the “Evidence of tissue hypoperfusion (wound conversion to full thickness, metabolic acidosis)” value ([5]; result in words) was “No other direct or indirect evidence of tissue hypoperfusion”, the “Negative clinical sequela resulting from β-blockade” value ([5]; result in words) was “No negative clinical sequela” and the “Serum potassium values vs non-treated group” value [6] was “higher”. The “Heart rates vs baseline and control group” value ([7]; during beta blockade, p<0.05, result in words) was “lower than baseline and lower than those of the control group”, the “Decrease in heart rate compared with patient's own baseline and with non-treated controls” value ([7]; oral propranolol titrated, p=0.03) was 20% and the “Blood pressure vs non-treated group / with treatment” value [7, 9] was “not statistically different; also recorded: no significant decrease”. The “Diastolic blood pressure, change from baseline” value [7, 11] was −5 ± 5 mm/mHg, the “Mean arterial pressure, change from baseline” value [7, 11] was 1 ± 8 mHg and the “Systolic blood pressure, change from baseline” value [7, 11] was −4 ± 5 mHg.

From patent publication US7098248B2, “Beta-adrenergic blockade reversal of catabolism after severe burn” (Research Development Foundation, priority 2001, dated 2006)
